Series [1] can be described thus: Cyto-toxicity assay (MTT) in MT2 cells without virus. The class given is cell-based. The conditions noted are these: human. As to the method:
For cyto-toxicity assay the same amount of MT2 cells as in antiviral assay without virus was added to the 96 well plates. The cyto-toxicity was measured using MTT reagent in parallel with p24 estimation. The percent viability is calculated in comparison with vehicle control.

The test system of a further series is HIV-1 strain 92HT599. Kind of series: Antiviral activity: p24 estimation in MT2 cells infected with HIV-1 strain 92HT599. It counts as cell-based. The conditions noted are these: for inhibition at 0.1 µM: read-out: Antiviral activity % inhibition 100 nM; for inhibition at 1 µM: read-out: Antiviral activity % inhibition 1000 nM. The method, then: MT2 cells were infected with HIV-1 strain 92HT599 (10 TCID 50/30000 cells). The infected cells were plated at the concentration of […] cells per well in 96 well plate. Test compound was added to the micro plate in defined format with the final concentration of DMSO (vehicle) is not more than 1%. Incubation was carried out in CO2 incubator for ˜96 hours for viral infection. At the end of incubation period an aliquot from each well was taken for p24 estimation. The quantitation of p24 is an index for antiviral activity of the compound. Percent inhibition was calculated with reference to control values (vehicle controls).
p-24 estimation was carried out using Advance biosciences kit as per the procedure detailed by supplier.

Series [2] is described as follows: Single dose oral pharmacokinetic study in mice. The class given is in vivo. The settings on record: Oral PK @ 30 mg/ kg dose in mice (Table 6); for AUC(0-inf) / Cmax / Tmax / AUC(0-t): mouse, plasma; for AUC(0-t): read-out: AUCt. As to the method: The test item was administered through oral route to animals (rat/mice) at 30 mg/kg dose in a suitable vehicle at 10 ml/kg dose volume. Blood samples (˜50 uL at each time point) were collected from retro-orbital plexus using K3 EDTA as anticoagulant in eppendorf tubes at defined time intervals under light ether anesthesia. The samples were centrifuged at 3500×g to separate plasma and stored at −80° C. until analysis.
Sample analysis: Test samples were analyzed using LC-MS-MS after developing fit-for-purpose method for each of test compound.

Setting [3] is: Human immunodeficiency virus 1, 100 nM, MT2 cells, HIV-1 92HT599, ~96 hours, p24.
Where [4] appears, read: Human immunodeficiency virus 1, 1000 nM, MT2 cells, HIV-1 92HT599, ~96 hours, p24.
Setting [5] is: Human immunodeficiency virus 1, MT2, 96 h.

These results are taken from patent publication US20150119373A1, “NOVEL BETULINIC ACID DERIVATIVES AS HIV INHIBITORS” (HETERO RESEARCH FOUNDATION, priority 2012, published 2015).

Molecules are shown by their SMILES. Like-named read-outs stand apart in the source and are kept apart here.

Usually viability stands for a read-out of living cells in per cent, often relative to untreated cells. As a reminder, the inhibition is how much of the control response was suppressed. Broadly, the AUC(0-inf) is total exposure, with the tail of the curve extrapolated. Lower therefore signals low exposure. Broadly, the Cmax is the maximum level reached in the sampled fluid or tissue. Usually Tmax stands for the time at which the peak concentration occurs.

In series [1], `CC1([C@@H]2CC[C@]3(C(=O)N4CCN(CCN5CCOCC5)CC4)CC[C@]4(C)[C@H](CC[C@@H]5[C@@]6(C)CC[C@H](OC(=O)[C@H]7C[C@@H](C(=O)O)C7(C)C)C(C)(C)[C@@H]6CC[C@]54C)[C@@H]23)CC1` [Example 32] displayed a viability at 100 nM of 100% and a viability at 1000 nM of 95%. Besides, the inhibition at 0.1 µM in the series with HIV-1 strain 92HT599 (setting [3]) is 99%. Moreover, in the series on HIV-1 strain 92HT599 (setting [4]), the inhibition at 1 µM was 99%. Also, in series [2], the Tlast came out at 48 h, the AUC(0-inf) amounted to 240 µg·h/mL, the Cmax was 9200 ng/mL and the Tmax came to 6.5 h. In addition, the AUC(0-t) in series [2] is 214 µg·h/mL.

Consider `COCCOC1CCN(C(=O)[C@]23CC[C@@H](C4(C)CC4)[C@@H]2[C@H]2CC[C@@H]4[C@@]5(C)CC[C@H](OC(=O)[C@H]6C[C@@H](C(=O)O)C6(C)C)C(C)(C)[C@@H]5CC[C@@]4(C)[C@]2(C)CC3)CC1` [Example 42, (1R,3S)-3-((((1R,3aS,5aR,5bR,7aR,9S,11aR,11bR,13aR,13bR)-3a-(4-(2-methoxyethoxyl)piperidine-1-carbonyl)-5a,5b,8,8,8,11a-pentamethyl-1-(1-methylcyclopropyl)icosahydro-1H-cyclopenta[a]chrysen-9-yl)oxy)carbonyl)-2,2-dimethylcyclobutane-1-carboxylic acid], for which the viability at 100 nM in series [1] (100 nM, MT2 cells, MTT, read-out: Cytotoxicity % viability 100 nM) is 86%. Moreover, the viability at 1000 nM in series [1] (1000 nM, MT2 cells, MTT, read-out: Cytotoxicity % viability 1000 nM) worked out at 84%. For the same compound, in the series on HIV-1 strain 92HT599 (setting [5]), the inhibition at 0.1 µM is 94% and the inhibition at 1 µM is 99%. In addition, in series [2], the Tlast stood at 48 h, the concentration peaked (Cmax) at 7400 ng/mL, the Tmax amounted to 32 h and the AUC(0-t) worked out at 300 µg·h/mL.

For the compound `[2H]C([2H])([2H])C(CC(=O)O[C@H]1CC[C@]2(C)[C@H]3CC[C@@H]4[C@H]5[C@H](C(=C)C)CC[C@]5(C(=O)N[C@@H]5C[C@H](C(=O)N6CCCCC6)C5(C)C)CC[C@@]4(C)[C@]3(C)CC[C@H]2C1(C)C)(C(=O)O)C([2H])([2H])[2H]` [Example 24, 4-(((1R,3aS,5aR,5bR,7aR,9S,11aR,11bR,13aR,13bR)-3a-(((1R,3S)-2,2-dimethyl-3-(piperidine-1-carbonyl)cyclobutyl)carbamoyl)-5a,5b,8,8,11a-pentamethyl-1-(prop-1-en-2-yl)icosahydro-1H-cyclopenta[a]chrysen-9-yl)oxy)-2,2-bis(methyl-d3)-4-oxobutanoic acid], in series [1], the viability at 100 nM is 83% and the viability at 1000 nM is 99%. Further, in the series on HIV-1 strain 92HT599 (setting [3]), the inhibition at 0.1 µM is 100%. In addition, the inhibition at 1 µM with HIV-1 strain 92HT599 (setting [4]) is 100%. Besides, in series [2], the Tlast is 24 h, the AUC(0-inf) came to 123 µg·h/mL, the Cmax turned out to be 9100 ng/mL and the Tmax was 2 h. In addition, the AUC(0-t) in series [2] was 70 µg·h/mL.

In series [1], `CC(CO)(CO)C(=O)N1CCN(C(=O)[C@]23CC[C@@H](C4(C)CC4)[C@@H]2[C@H]2CC[C@@H]4[C@@]5(C)CC[C@H](OC(=O)[C@H]6C[C@@H](C(=O)O)C6(C)C)C(C)(C)[C@@H]5CC[C@@]4(C)[C@]2(C)CC3)CC1` [Example 36] came in with a viability at 100 nM of 77% and a viability at 1000 nM of 90%. Moreover, the inhibition at 0.1 µM in the series on HIV-1 strain 92HT599 (setting [3]) was 33%. Moreover, the inhibition at 1 µM in the series with HIV-1 strain 92HT599 (setting [4]) was 99%.

For the compound `CC1([C@@H]2CC[C@]3(C(=O)N4CCC(OCCN5CCOCC5)CC4)CC[C@]4(C)[C@H](CC[C@@H]5[C@@]6(C)CC[C@H](OC(=O)[C@H]7C[C@@H](C(=O)O)C7(C)C)C(C)(C)[C@@H]6CC[C@]54C)[C@@H]23)CC1` [Example 48, (1R,3S)-2,2-dimethyl-3-((((1R,3aS,5aR,5bR,7aR,9S,11aR,11bR,13aR,13bR)-5a,5b,8,8,11a-pentamethyl-1-(1-methylcyclopropyl)-3a-(4-(2-morpholinoethoxyl)piperidine-1-carbonyl)icosahydro-1H-cyclopenta[a]chrysen-9-yl)oxy)carbonyl)cyclobutane-1-carboxylic acid], in series [1], the viability at 100 nM was determined as 100% and the viability at 1000 nM is 100%. Besides, the inhibition at 0.1 µM in the series with HIV-1 strain 92HT599 (setting [3]) was 97%. Besides, in the series with HIV-1 strain 92HT599 (setting [4]), the inhibition at 1 µM is 99%.

Turning to `CC(C)(C)OC(=O)N1CCN(C(=O)[C@]23CC[C@@H](C4(C)CC4)[C@@H]2[C@H]2CC[C@@H]4[C@@]5(C)CC[C@H](OC(=O)[C@H]6C[C@@H](C(=O)O)C6(C)C)C(C)(C)[C@@H]5CC[C@@]4(C)[C@]2(C)CC3)CC1` [Example 38], in series [1], the viability at 100 nM was 85% and the viability at 1000 nM came to 83%. The inhibition at 0.1 µM in the series on HIV-1 strain 92HT599 (setting [3]) is 68%. Also, the inhibition at 1 µM in the series on HIV-1 strain 92HT599 (setting [4]) is 99%.

On to `C=C(C)[C@@H]1CC[C@]2(C(=O)N[C@@H]3C[C@H](c4nnc(CC(C)C)o4)C3(C)C)CC[C@]3(C)[C@H](CC[C@@H]4[C@@]5(C)CC[C@H](OC(=O)CC(C)(C)C(=O)O)C(C)(C)[C@@H]5CC[C@]43C)[C@@H]12` [Example 16, 4-((1R,3aS,5aR,5bR,7aR,9S,11aR,11bR,13aR,13bR)-3a-((1R,3S)-3-(5-isobutyl-1,3,4-oxadiazol-2-yl)-2,2-dimethylcyclobutylcarbamoyl)-5a,5b,8,8,11a-pentamethyl-1-(prop-1-en-2-yl)icosahydro-1H-cyclopenta[a]chrysen-9-yloxy)-2,2-dimethyl-4-oxobutanoic acid], for which, in series [1], the viability at 100 nM turned out to be 81% and the viability at 1000 nM was determined as 79%. In addition, the inhibition at 0.1 µM in the series with HIV-1 strain 92HT599 (setting [3]) is 100%. Also, the inhibition at 1 µM with HIV-1 strain 92HT599 (setting [4]) was 100%.

In series [1], `C=C(C)[C@@H]1CC[C@]2(C(=O)N3CCCCC3)CC[C@]3(C)[C@H](CC[C@@H]4[C@@]5(C)CC[C@H](OC(=O)[C@H]6[C@@H](CC(=O)O)C6(C)C)C(C)(C)[C@@H]5CC[C@]43C)[C@@H]12` [Compound 2, 2-((1R,3S)-2,2-dimethyl-3-(((1R,3aS,5aR,5bR,7aR,9S,11aR,11bR,13aR,13bR)-5a,5b,8,8,11a-pentamethyl-3a-(piperidine-1-carbonyl)-1-(prop-1-en-2-yl)icosahydro-1H-cyclopenta[a]chrysen-9-yloxy)carbonyl)cyclopropyl)acetic acid] came in with a viability at 100 nM of 96% and a viability at 1000 nM of 95%. In addition, the inhibition at 0.1 µM with HIV-1 strain 92HT599 (setting [3]) was 77%. The inhibition at 1 µM with HIV-1 strain 92HT599 (setting [4]) was 98%.

With `C=C(C)[C@@H]1CC[C@]2(C(=O)N[C@@H]3C[C@H](C(=O)N4CCCCC4)C3(C)C)CC[C@]3(C)[C@H](CC[C@@H]4[C@@]5(C)CC[C@H](OC(=O)CC(C)(C)C(=O)OCOC)C(C)(C)[C@@H]5CC[C@]43C)[C@@H]12` [Example 9, 4-(1R,3aS,5aR,5bR,7aR,9S,11aR,11bR,13aR,13bR)-3a-((1R,3S)-2,2-dimethyl-3-(piperidine-1-carbonyl)cyclobutylcarbamoyl)-5a,5b,8,8,11a-pentamethyl-1-(prop-1-en-2-yl)icosahydro-1H-cyclopenta[a]chrysen-9-yl 1-methoxymethyl 2,2-dimethylsuccinate], in series [1], the viability at 100 nM stood at 82% and the viability at 1000 nM amounted to 88%. In the series with HIV-1 strain 92HT599 (setting [3]), the inhibition at 0.1 µM was 64%. Moreover, the inhibition at 1 µM in the series with HIV-1 strain 92HT599 (setting [4]) is 99%.

Turning to `CC(C)(CC(=O)O[C@H]1CC[C@]2(C)[C@H]3CC[C@@H]4[C@H]5[C@H](C6(C)CC6)CC[C@]5(C(=O)N5CCC(OCCN6CCOCC6)CC5)CC[C@@]4(C)[C@]3(C)CC[C@H]2C1(C)C)C(=O)O` [Example 47, 2,2-dimethyl-4-oxo-4-(((1R,3aS,5aR,5bR,7aR,9S,11aR,11bR,13aR,13bR)-5a,5b,8,8,11a-pentamethyl-1-(1-methylcyclopropyl)-3a-(4-(2-morpholinoethoxyl)piperidine-1-carbonyl)icosahydro-1H-cyclopenta[a]chrysen-9-yl)oxy)butanoic acid], in series [1], the viability at 100 nM came out at 100% and the viability at 1000 nM is 96%. Besides, the inhibition at 0.1 µM in the series with HIV-1 strain 92HT599 (setting [3]) is 100%. For the same compound, the inhibition at 1 µM in the series with HIV-1 strain 92HT599 (setting [4]) was 99%.

In series [1], `CC(C)(CC(=O)O[C@H]1CC[C@]2(C)[C@H]3CC[C@@H]4[C@H]5[C@H](C6(C)CC6)CC[C@]5(C(=O)N5CCCCC5)CC[C@@]4(C)[C@]3(C)CC[C@H]2C1(C)C)C(=O)O` [Compound 3, 2,2-dimethyl-4-oxo-4-((1R,3aS,5aR,5bR,7aR,9S,11aR,11bR,13aR,13bR)-5a,5b,8,8,11a-pentamethyl-1-(1-methylcyclopropyl)-3a-(piperidine-1-carbonyl)icosahydro-1H-cyclopenta[a]chrysen-9-yloxy)butanoic acid] returned a viability at 100 nM of 100% and a viability at 1000 nM of 99%. The inhibition at 0.1 µM in the series with HIV-1 strain 92HT599 (setting [3]) is 97%. Besides, the inhibition at 1 µM with HIV-1 strain 92HT599 (setting [4]) was 97%.
